Data on 1 compound can be found in US10681909B2, “Herbicidal triazoles” (FMC Corporation, priority 2014, dated 2020).

Common to all, as to experiment: Test A postemergence
The subject of one experiment is barnyardgrass. The experiment is classed as in vivo, Echinochloa crus-galli. The settings on record: Echinochloa crus-galli, post-emergence, 240 h, 0 to 100 scale (0 no effect, 100 complete control), approx. 10 d, read-out: Plant response rating, Barnyardgrass. In outline:
(§1)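 Herbicidal response was scored on plants treated pre- or postemergence with surfactant-containing, non-phytotoxic solvent formulations. Preemergence meant a directed spray onto soil (loam–sand) holding sown seed; postemergence plants were at one to two leaves.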

The test system of another experiment is foxtail, giant. Type of experiment: in vivo, Setaria faberii. Particulars: Setaria faberi, post-emergence, 240 h, 0 to 100 scale (0 no effect, 100 complete control), approx. 10 d, read-out: Plant response rating, Foxtail, Giant. In outline: as §1
The next experiment has as its system pigweed. Type of experiment: in vivo, Amaranthus retroflexus. Particulars: Amaranthus retroflexus, post-emergence, 240 h, 0 to 100 scale (0 no effect, 100 complete control), approx. 10 d, read-out: Plant response rating, Pigweed. In outline: as §1
The next experiment deals with corn. The experiment is classed as in vivo, Zea mays. Particulars: Zea mays, post-emergence, 240 h, 0 to 100 scale (0 no effect, 100 complete control), approx. 10 d. In outline:
as §1

For the compound `Cn1nc(-c2ccc(F)cc2)nc1Oc1cccc(C(F)(F)F)c1` [Compound 5, 3-(4-fluorophenyl)-1-methyl-5-[3-(trifluoromethyl)phenoxy]-1H-1,2,4-triazole], the pest or weed control at 125 g/ha in the experiment with barnyardgrass (125 g ai/ha) was determined as 10%; with foxtail, giant (125 g ai/ha), 20%; in the experiment on pigweed (125 g ai/ha), 90%. Besides, the pest or weed control at 500 g/ha in the experiment with barnyardgrass (500 g ai/ha) is 30%; in the experiment with foxtail, giant (500 g ai/ha) it was 70%; in the experiment on pigweed (500 g ai/ha), 100%. The compound further showed a Corn plant response rating (crop injury, 0 = no effect, 100 = complete kill) at 125 g/ha in the experiment on corn (125 g ai/ha) of 10%. The compound further registered a Corn plant response rating (crop injury, 0 = no effect, 100 = complete kill) at 500 g/ha with corn (500 g ai/ha) of 20%.
